29 compounds from patent US8796289B2 (AbbVie Inc., priority 2011, dated 2014) can be followed below.

GST-tagged-Wee1 kinase, sequence (P30291 whole entry): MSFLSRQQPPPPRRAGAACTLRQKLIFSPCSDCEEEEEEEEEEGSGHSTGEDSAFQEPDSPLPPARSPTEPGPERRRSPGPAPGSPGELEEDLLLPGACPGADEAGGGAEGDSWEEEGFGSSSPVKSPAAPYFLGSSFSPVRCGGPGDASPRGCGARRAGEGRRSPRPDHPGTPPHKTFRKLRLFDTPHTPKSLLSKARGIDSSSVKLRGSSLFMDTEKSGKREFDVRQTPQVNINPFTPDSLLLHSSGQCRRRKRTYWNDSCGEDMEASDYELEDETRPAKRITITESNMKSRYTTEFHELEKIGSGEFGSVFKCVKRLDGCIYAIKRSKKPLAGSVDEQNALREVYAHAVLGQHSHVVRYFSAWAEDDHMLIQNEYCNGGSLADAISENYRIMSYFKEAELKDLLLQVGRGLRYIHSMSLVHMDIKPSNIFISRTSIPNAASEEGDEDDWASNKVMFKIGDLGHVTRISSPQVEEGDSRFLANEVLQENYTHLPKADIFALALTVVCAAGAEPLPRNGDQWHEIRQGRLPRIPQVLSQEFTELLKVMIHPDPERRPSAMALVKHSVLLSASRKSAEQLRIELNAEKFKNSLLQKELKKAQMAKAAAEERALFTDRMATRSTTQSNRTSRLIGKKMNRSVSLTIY

For the assay, the target named is GST-tagged-Wee1 kinase (Homo sapiens, UniProt P30291). Kind of assay: Wee1 time-resolved fluorescence equilibrium binding assay (displacement of Oregon Green-labeled ATP-competitive kinase probe). As for the experimental part:
Wee1 kinase was assayed using a time-resolved fluorescence equilibrium binding assay monitoring displacement of a rapidly reversible Oregon Green-labeled ATP-competitive kinase probe (N-(2-(2-(2-(4-(4-(5-chloro-4-(2-(1-hydroxycyclobutyl)thiazol-5-yl)-1H-pyrrolo[2,3-b]pyridin-2-yl)phenyl)piperazin-1-yl)ethoxy)ethoxy)ethyl)-2′,7′-difluoro-3′,6′-dihydroxy-3-oxo-3H-spiro[isobenzofuran-1,9′-xanthene]-5-carboxamide) by competitive Wee1 inhibitors.
For orientation: Ki means the dissociation constant of the complex between target and ligand, obtained from inhibition or displacement. As for `Cc1nn(-c2c(Cl)cccc2Cl)c(=O)c2cnc(Nc3cccc(C(=O)NC4CCNCC4)c3)nc12` [Example 530, 3-{[6-(2,6-dichlorophenyl)-8-methyl-5-oxo-5,6-dihydropyrimido[4,5-d]pyridazin-2-yl]amino}-N-(piperidin-4-yl)benzamide], the Ki stood at 0.3 nM. For the compound `C=CCn1nc(-c2ccccc2)c2nc(Nc3ccc(N4CCCN(C(C)C)CC4)c(C)c3)ncc2c1=O` [Example 115, 6-allyl-2-{[4-(4-isopropyl-1,4-diazepan-1-yl)-3-methylphenyl]amino}-8-phenylpyrimido[4,5-d]pyridazin-5(6H)-one], the Ki was determined as 4 nM. Compared with the last compound, the Ki is about 13-fold higher.

As for `Cc1nn(-c2c(Cl)cccc2Cl)c(=O)c2cnc(Nc3ccc4c(c3)CN(CC(F)(F)F)CC4(C)C)nc12` [Example 370, 6-(2,6-dichlorophenyl)-2-{[4,4-dimethyl-2-(2,2,2-trifluoroethyl)-1,2,3,4-tetrahydroisoquinolin-7-yl]amino}-8-methylpyrimido[4,5-d]pyridazin-5(6H)-one], the affinity corresponds to a Ki of 35 nM. Take `O=c1c2cnc(Nc3ccc4c(c3)CNCC43CC3)nc2cnn1-c1c(Cl)cccc1Cl` [Example 326, 6-(2,6-dichlorophenyl)-2-(2′,3′-dihydro-1′H-spiro[cyclopropane-1,4′-isoquinolin]-7′-ylamino)pyrimido[4,5-d]pyridazin-5(6H)-one]: the Ki is 0.53 nM. `O=c1c2cnc(Nc3ccc4c(c3)CNCC43CC3)nc2c(-c2ccccn2)nn1-c1ccncc1Cl` [Example 385, 6-(3-chloropyridin-4-yl)-2-(2′,3′-dihydro-1′H-spiro[cyclopropane-1,4′-isoquinolin]-7′-ylamino)-8-(pyridin-2-yl)pyrimido[4,5-d]pyridazin-5(6H)-one] returned a Ki of 7.2 nM. The same measure for `COCc1nn(-c2c(Cl)cccc2Cl)c(=O)c2cnc(Nc3ccc(N4CCNCC4)cc3)nc12` [Example 424, 6-(2,6-dichlorophenyl)-8-(methoxymethyl)-2-{[4-(piperazin-1-yl)phenyl]amino}pyrimido[4,5-d]pyridazin-5(6H)-one]: 0.4 nM; for `C=CCn1nc(C)c2nc(Nc3ccc(N4CCN(C)CC4)cc3)ncc2c1=O` [Example 2, 6-allyl-8-methyl-2-{[4-(4-methylpiperazin-1-yl)phenyl]amino}pyrimido[4,5-d]pyridazin-5(6H)-one]: 140 nM. In the case of `CC(C)n1nc(-c2ccncc2)c2nc(Nc3ccc(N4CCN(C)CC4)cc3)ncc2c1=O` [Example 273, 2-{[4-(4-methylpiperazin-1-yl)phenyl]amino}-6-(propan-2-yl)-8-(pyridin-4-yl)pyrimido[4,5-d]pyridazin-5(6H)-one], the affinity corresponds to a Ki of 11 nM.

Compound `CN1CCN(c2ccc(Nc3ncc4c(=O)n(-c5ccccc5C(F)(F)F)nc(-c5ccccc5)c4n3)cc2)CC1` [Example 31, 2-{[4-(4-methylpiperazin-1-yl)phenyl]amino}-8-phenyl-6-[2-(trifluoromethyl)phenyl]pyrimido[4,5-d]pyridazin-5(6H)-one] registered a Ki of 0.8 nM. The same measure for `CN1CCN(c2ccc(Nc3ncc4c(=O)n(-c5ccccc5F)nc(C5CC(F)(F)C5)c4n3)cc2)CC1` [Example 198, 8-(3,3-difluorocyclobutyl)-6-(2-fluorophenyl)-2-{[4-(4-methylpiperazin-1-yl)phenyl]amino}pyrimido[4,5-d]pyridazin-5(6H)-one]: 25 nM; for `C=CCn1nc(-c2ccco2)c2nc(Nc3ccc(S(=O)(=O)N4CCOCC4)cc3)ncc2c1=O` [Example 140, 6-allyl-8-(2-furyl)-2-{[4-(morpholin-4-ylsulfonyl)phenyl]amino}pyrimido[4,5-d]pyridazin-5(6H)-one]: over 3140 nM; for `CN1CCN(c2ccc(Nc3ncc4c(=O)n(-c5ccccc5Cl)nc(-c5ccsc5)c4n3)cc2)CC1` [Example 96, 6-(2-chlorophenyl)-2-{[4-(4-methylpiperazin-1-yl)phenyl]amino}-8-(3-thienyl)pyrimido[4,5-d]pyridazin-5(6H)-one]: 0.2 nM. The same measure for `C=CCn1nc(-c2ccccc2)c2nc(Nc3ccc(S(=O)(=O)N4CCOCC4)cc3)ncc2c1=O` [Example 110, 6-allyl-2-{[4-(morpholin-4-ylsulfonyl)phenyl]amino}-8-phenylpyrimido[4,5-d]pyridazin-5(6H)-one]: over 3140 nM. Consider `CC1(C)CNCc2cc(Nc3ncc4c(=O)n(-c5c(Cl)cccc5Cl)nc(C(F)F)c4n3)ccc21` [Example 478], for which the affinity corresponds to a Ki of 0.17 nM. `Cc1nn(-c2c(Cl)cccc2Cl)c(=O)c2cnc(Nc3ccc4c(c3)CNCC4(C)C)nc12` [Example 438, 6-(2,6-dichlorophenyl)-2-[(4,4-dimethyl-1,2,3,4-tetrahydroisoquinolin-7-yl)amino]-8-methylpyrimido[4,5-d]pyridazin-5(6H)-one] returned a Ki of 0.18 nM.

Consider `O=C1CCCN1c1ccc(-c2nn(-c3c(Cl)cccc3Cl)c(=O)c3cnc(Nc4ccc(C5CCNCC5)cc4)nc23)cc1` [Example 254, 6-(2,6-dichlorophenyl)-8-[4-(2-oxopyrrolidin-1-yl)phenyl]-2-{[4-(piperidin-4-yl)phenyl]amino}pyrimido[4,5-d]pyridazin-5(6H)-one], for which the affinity corresponds to a Ki of 0.3 nM.

Regarding `C=Cn1ccc(-c2nn(-c3c(Cl)cccc3Cl)c(=O)c3cnc(Nc4ccc(N5CCN(C)CC5)cc4)nc23)n1` [Example 236, 6-(2,6-dichlorophenyl)-8-(1-ethenyl-1H-pyrazol-3-yl)-2-{[4-(4-methylpiperazin-1-yl)phenyl]amino}pyrimido[4,5-d]pyridazin-5(6H)-one], the Ki was under 1 nM. `CC(O)Cn1nc(-c2ccccn2)c2nc(Nc3ccc4c(c3)CN(C)CC4(C)C)ncc2c1=O` (centres unmarked) [Example 288, 6-(2-hydroxypropyl)-8-(pyridin-2-yl)-2-[(2,4,4-trimethyl-1,2,3,4-tetrahydroisoquinolin-7-yl)amino]pyrimido[4,5-d]pyridazin-5(6H)-one] came in with a Ki of 172 nM. This counts as sub-micromolar. Compound `C=CCn1nc(-c2cccc(OC)c2)c2nc(Nc3ccc(N4CCN(C)CC4)cc3)ncc2c1=O` [Example 63, 6-allyl-8-(3-methoxyphenyl)-2-{[4-(4-methylpiperazin-1-yl)phenyl]amino}pyrimido[4,5-d]pyridazin-5(6H)-one] registered a Ki of 5 nM. `CN1CCN(c2ccc(Nc3ncc4c(=O)n(-c5ccccc5)nc(-c5ccc(-c6ncccn6)cc5)c4n3)cc2)CC1` [Example 59, 2-{[4-(4-methylpiperazin-1-yl)phenyl]amino}-6-phenyl-8-[4-(pyrimidin-2-yl)phenyl]pyrimido[4,5-d]pyridazin-5(6H)-one] displayed a Ki of 3 nM. Against the preceding compound, the Ki is about 1.7-fold lower.

For `CN1CCN(c2ccc(Nc3ncc4c(=O)n(-c5ccccc5)nc(-c5cnn(C)c5)c4n3)cc2)CC1` [Example 85, 2-{[4-(4-methylpiperazin-1-yl)phenyl]amino}-8-(1-methyl-1H-pyrazol-4-yl)-6-phenylpyrimido[4,5-d]pyridazin-5(6H)-one], the affinity corresponds to a Ki of 24.7 nM. As to `Cc1nn(-c2c(Cl)cncc2Cl)c(=O)c2cnc(Nc3ccc4c(c3)CCNC4)nc12` [Example 448, 6-(3,5-dichloropyridin-4-yl)-8-methyl-2-(1,2,3,4-tetrahydroisoquinolin-6-ylamino)pyrimido[4,5-d]pyridazin-5(6H)-one], the Ki came to 0.5 nM.

`Cc1nn(-c2c(Cl)cccc2Cl)c(=O)c2cnc(Nc3ccc4c(c3)CN(C(=O)C3CC3)CC4(C)C)nc12` [Example 440, 2-{[2-(cyclopropylcarbonyl)-4,4-dimethyl-1,2,3,4-tetrahydroisoquinolin-7-yl]amino}-6-(2,6-dichlorophenyl)-8-methylpyrimido[4,5-d]pyridazin-5(6H)-one] yielded a Ki of 0.82 nM. With `CNCc1cccc(-c2nn(-c3c(Cl)cccc3Cl)c(=O)c3cnc(Nc4ccc(N5CCN(C)CC5)cc4)nc23)c1` [Example 183, 6-(2,6-dichlorophenyl)-8-{3-[(methylamino)methyl]phenyl}-2-{[4-(4-methylpiperazin-1-yl)phenyl]amino}pyrimido[4,5-d]pyridazin-5(6H)-one], the Ki was 0.02 nM. This Ki is about 41-fold lower than that of the compound before. The same measure for `Cc1nn(-c2ccccc2Cl)c(=O)c2cnc(Nc3ccc(N4CCN(CCCN(C)C)CC4)cc3)nc12` [Example 518, 6-(2-chlorophenyl)-2-[(4-{4-[3-(dimethylamino)propyl]piperazin-1-yl}phenyl)amino]-8-methylpyrimido[4,5-d]pyridazin-5(6H)-one]: 0.7 nM. For the compound `CS(=O)(=O)N1Cc2cc(Nc3ncc4c(=O)n(-c5c(Cl)cccc5Cl)nc(-c5ccncc5)c4n3)ccc2C2(CC2)C1` [Example 381, 6-(2,6-dichlorophenyl)-2-{[2′-(methylsulfonyl)-2′,3′-dihydro-1′H-spiro[cyclopropane-1,4′-isoquinolin]-7′-yl]amino}-8-(pyridin-4-yl)pyrimido[4,5-d]pyridazin-5(6H)-one], the affinity, expressed as Ki, was 0.81 nM. `CN1Cc2cc(Nc3ncc4c(=O)n(-c5c(Cl)cccc5Cl)nc(C5CC5)c4n3)ccc2C2(CC2)C1` [Example 389, 8-cyclopropyl-6-(2,6-dichlorophenyl)-2-[(2′-methyl-2′,3′-dihydro-1′H-spiro[cyclopropane-1,4′-isoquinolin]-7′-yl)amino]pyrimido[4,5-d]pyridazin-5(6H)-one] yielded an inhibition constant Ki of 0.28 nM. Compared with the last compound, the Ki is about 2.9-fold lower. The compound `COC(=O)c1cc(-c2nn(-c3c(Cl)cccc3Cl)c(=O)c3cnc(Nc4ccc(N5CCN(C)CC5)cc4)nc23)ccn1` [Example 222, methyl 4-[6-(2,6-dichlorophenyl)-2-{[4-(4-methylpiperazin-1-yl)phenyl]amino}-5-oxo-5,6-dihydropyrimido[4,5-d]pyridazin-8-yl]pyridine-2-carboxylate] gave a Ki of 0.2 nM. `CN1CCN(c2ccc(Nc3ncc4c(=O)n(-c5c(Cl)cccc5Cl)nc(-c5cccc(C(=O)O)c5)c4n3)cc2)CC1` [Example 190, 3-[6-(2,6-dichlorophenyl)-2-{[4-(4-methylpiperazin-1-yl)phenyl]amino}-5-oxo-5,6-dihydropyrimido[4,5-d]pyridazin-8-yl]benzoic acid] displayed an inhibition constant (Ki) of 0.01 nM.
